Measured values from US8557565B2, “Degradation of polycyclic aromatic hydrocarbons to render them available for biodegradation” (priority 1999, dated 2013).
Blank lines part the entries; values can stand above or below the molecule they belong to.

Assays:
[1] = Solubility and stability of O3 in aqueous and organic solvents; format: physicochemical; conditions: bipolar solvent versus water or heptane alone
Description: The amount of oil to be employed in the bipolar solution was determined by its solubility in n-heptane and bipolar solvent. With an addition of 2.5 ml of distilled deionized water (about 5%) to a homogenous solution 50 ml of n-heptane and 50 ml of acetic acid, the solution was separated into two distinct phases: the n-heptane containing PAHs and other hydrophobic intermediates, and acetic acid phase (95% of acetic acid/5% DD water) containing the hydrophilic byproducts. In this example, about 480 mg/L of oil in the bipolar solvent was ozonated for different durations and the solution contents were analyzed accordingly. Both byproducts in the n-heptane phase and in the 95% acetic acid phase were analyzed by GC/FID, GC/FPD, and GC/MS after the separation. Ozone stability in different solvents: bipolar solvent, n-heptane, 95% acetic acid/5% DD water, and pure acetic acid were also tested by stopping after 20 minutes of ozonation and monitoring the ozone concentration immediately after.
Ozone was generated by an ozone generator (Model T-816, Polymetrics Corp.) from dry and filtered air at an applied voltage of 65V an air flow rate of 2 L/min. The concentration of ozone in the bipolar solvent was determined by absorbance at 270 nm with a spectrophotometer (HP 8452 UV-Vis spectrophotometer, Hewlett Packard Co.) using a predetermined extinction coefficient of 1955 M^−1 cm^−1. […]

[2] = Ozonation reaction kinetics of spilt oil constituents in bipolar solvent; format: physicochemical; conditions: for tentative estimated pseudo-first-order rate constant k′: ozonation of spilt oil (480 mg/L) in n-heptane/acetic acid 1:1 bipolar solvent, about 20° C.; for behaviour under ozonation in the bipolar solvent: spilt oil constituents
Description: In this work example, an innovative treatment is developed for spilt oils from southern Kuwait desert that involves ozonation in a homogeneous solvent system. The solvent is constituted of miscible n-heptane and acetic acid (1:1 by volume), both of that are relatively inexpensive, environmentally benign, and biodegradable. The solvent system allows dissolution of oil in its non-polar heptane constituent, while the hydrophilic acetic acid keeps the progressively more polar intermediates and byproducts being formed from ozonation of oil in solution as the reaction continues. The n-heptane and acetic acid were chosen because of their relatively slow reaction rate with ozone (kO3[M^−1 s^−1] about 10^−3˜1 for alkanes and 3×10^−5 for acetic acid.
The amount of oil to be employed in the bipolar solution was determined by its solubility in n-heptane and bipolar solvent.
The pseudo-first order rate constants were evaluated by linear regression of all data according to the equations given below. The reaction of ozone with contaminants can be expressed as a second order reaction: −dCA/dt=kCA[O3] (1) where: dCA/dt=rate of reaction of contaminant k=reaction rate constant CA=concentration of contaminant [O3]=concentration of ozone
In the present of excess and constant ozone concentration, the rate law for the reaction can be considered as pseudo-first order: −dCA/dt=k′CA (2)
A glass batch reactor with a working volume of 300 mL was used. Mixing in the reactor was provided by a magnetic mixer operating at 250 rpm. […] Ozone was sparged into the reactor near the bottom through a glass dispersion tube (ACE glass Inc.) Reaction batches were stopped after 0.25, 0.5, 1, 2, 3, 4, 5, 10, 20, 40, 60, 120, and 180 minutes of ozonation. Residual ozone was removed from solution by purging with a gentle N2 stream for 1 min. Samples were kept in 2-mL vials and preserved at 5° C. if necessary prior to GC analysis. Qualitative and quantitative analyses of oil and oxidized oil were performed simultaneously. All samples were concentrated by a gentle stream of N2 gas to best retain the intermediates with lower molecular weights.

[3] = Mass and COD balance of PAH-packed column fed with ozonated water; conditions: pyrene-loaded column, 4 h ozonation
[4] = Saturated aqueous solution (dissolution equilibrium in water); conditions: equilibrium overnight, 0.45-μm filtered

SMILES: O=[O+][O-] [Ozone]
- solubility and stability of O3 [1]: higher solubility and stability

- behaviour under ozonation in the bipolar solvent [2]: relatively resistant to ozonation
SMILES: CCCCCCCCCCCCCCCCCCCC [nC20, Icosane]
- tentative estimated pseudo-first-order rate constant k′ [2]: 0.00198 s⁻¹
- tentative estimated pseudo-first-order rate constant k′ ([2]; listed as n-icosane): 0.00198 s⁻¹

SMILES: c1cc2ccc3cccc4ccc(c1)c2c34 [Pyrene]
- total amount degraded [3]: 0.365 mmol
- saturated aqueous solution concentration [4]: 0.13 ppm

- behaviour under ozonation in the bipolar solvent [2]: relatively resistant to ozonation
SMILES: CCC(C)CCCC(C)CCCC(C)CCCC(C)C (stereo not drawn) [Phytane]
- tentative estimated pseudo-first-order rate constant k′ [2]: 0.0178 s⁻¹
- tentative estimated pseudo-first-order rate constant k′ ([2]; listed as phytane): 0.0178 s⁻¹
